Patent US4513001A, “β-Adrenergic 1-[1-benzimidazolyl]-N-[2-(4-hydroxy-3-methoxy-phenyl)-2-hydroxy-ethyl]- 3-amino butane and salts and hydrates thereof” (priority 1982, dated 1985)
Read-outs that look alike come from different tables or passages of the source.

Key:
[1] = tested on: isolated trachea preparation of the guinea pig; test: Relaxant activity on isolated tracheal muscle in vitro; details: 6 preparations
Description: This activity was studied on an isolated trachea preparation of the guinea pig (chain of tracheal rings, according to CASTILLO and BEER. Journ. Pharmacol. Exp. Ther. 1947 90 104-109), kept alive in a KREBS solution. The effect of cumulative doses on the pressure of the preparation was recorded.
The activity of the substance was expressed by the value of the molar CD50 (decontracting concentration 50=concentration giving 50% of maximum relaxation), of which the negative log. is the value pD2, and by the intrinsic activity corresponding to maximum effect.
These values were determined in parallel for the compound A and Salbutamol, on 6 preparations for each.

histamine bronchospasm [2] = test: Bronchodilator activity in vivo, anesthetized guinea pig, intravenous (inhibition of histamine bronchospasm, KONZETT); details: i.v.
Description: (§1) 1.2.1 In the anesthesized guinea pig (method of KONZETT. Arch. Exp. Pathol. Pharmakol. 1940 195 71-74)
(§2) A bronchospasm was caused by intravenous histamine injection. The bronchodilator activity was shown by partial or total inhibition of this spasm.
The product studied was administered intravenously or intraduodenaly and histamine injected then at different times to follow the delay in appearance and the duration of the inhibiting effect of the treatment. […]

histamine bronchospasm [3] = test: Bronchodilator activity in vivo, anesthetized guinea pig, intraduodenal (inhibition of histamine bronchospasm, KONZETT)
Description: as §1, §2
The product studied was administered intravenously or intraduodenaly and histamine injected then at different times to follow the delay in appearance and the duration of the inhibiting effect of the treatment.
The results below are the averages of the values obtained in 10 animals.

histamine bronchospasm [4] = test: Bronchodilator activity in vivo, anesthetized dog, intraduodenal (intratracheal pressure, histamine bronchospasm)
Description: 1.2.2. In the anesthesized dog (recording of the intratracheal pressure)
A bronchospasm was caused by intravenous injection and histamine. The bronchodilator activity was shown by partial or total inhibition of this spasm.
The products studied were administered intraduodenally and the histamine injected then at various times to follow the effect of the treatment.
The results borne in the table below are the averages of the values obtained in 3 animals for each product.

rat uterus preparation = test: Uterus relaxing activity in vitro; details: Rattus norvegicus, 7 preparations, read-out: CE50 (effective concentration 50, inhibiting by 50% the control contraction)
Excerpt: This activity was investigated on a rat uterus preparation, put into estrus by cutaneous injection of oestradiol benzoate. The uterine horns were kept alive in a RINGER-LOCKE solution, modified by GADDUM and VOGT.
Their activity is expressed by the value of the molar CE50 (effective concentration 50, inhibiting by 50% the control contraction induced by the contracting agent).
Each CE50 indicated below was obtained from the results of 7 preparations.

[5] = tested on: isolated right atrium preparation of the guinea pig; test: Activity on the heart rate in vitro, isolated right atrium
Description: This action was studied on an isolated right atrium preparation of the guinea pig kept alive in a RINGER solution. The effect of cumulative doses on the heart rate was recorded. The results below are the averages of 6 preparations of the compound A, of 4 for Salbutamol

[6] = tested on: heart rate and mean aortic pressure; test: Heart rate and mean aortic pressure of the anesthetised dog, intraduodenal; format: in vivo; details: intraduodenal
Description: 3.1.1. Activity on the heart rate and on the mean aortic pressure of the anesthetisied dog
The activity of the compound A and of Salbutamol was studied on 2 batches of 3 dogs per product: one in spontaneous respiration, the other in artificial respiration; the two substances were administered intraduodenally at 3 doses: 0.008-0.025 and 0.08 mg/kg.

guinea pig trachea = test: β-stimulant specificity: guinea pig trachea before and after propranolol; details: for EC50: Cavia porcellus, 6 preparations
Excerpt: respiratory (guinea pig trachea, in vitro)
cardiovascular (heart rate of the dog, in vivo) by the antagonistic effect of a β-blocking product.

Compound: CC(C)(C)NCC(O)c1ccc(O)c(CO)c1 (stereo not drawn) [Salbutamol, reference compound]
- Maximum response (decontraction) [1]: 358 mg
- Emax ([1]; Cavia porcellus, Salbutamol 1.00, read-out: Intrinsic activity): 100%
- EC50 ([1]; Cavia porcellus, read-out: CD50 (decontracting concentration 50, concentration giving 50% of maximum relaxation)): 15 nM
- EC50 ([1]; Cavia porcellus, negative log of molar CD50, read-out: pD2 (converted)): 15.1 nM
- % inhibition in time (histamine bronchospasm [2]; 0.08 μg base/kg, 1 min): 8%
- % inhibition in time (histamine bronchospasm [2]; 0.08 μg base/kg, 5 min): 2%
- % inhibition in time (histamine bronchospasm [2]; 0.08 μg base/kg, 10 min): 0%
- % inhibition in time (histamine bronchospasm [2]; 0.08 μg base/kg, 15 min): 1%
- % inhibition in time (histamine bronchospasm [2]; 0.25 μg base/kg, 1 min): 25%
- % inhibition in time (histamine bronchospasm [2]; 0.25 μg base/kg, 5 min): 6%
- % inhibition in time (histamine bronchospasm [2]; 0.25 μg base/kg, 10 min): 2%
- % inhibition in time (histamine bronchospasm [2]; 0.25 μg base/kg, 15 min): 2%
- % inhibition in time (histamine bronchospasm [2]; 0.8 μg base/kg, 1 min): 54%
- % inhibition in time (histamine bronchospasm [2]; 0.8 μg base/kg, 5 min): 8%
- % inhibition in time (histamine bronchospasm [2]; 0.8 μg base/kg, 10 min): 7%
- % inhibition in time (histamine bronchospasm [2]; 0.8 μg base/kg, 15 min): 2%
- % inhibition in time (histamine bronchospasm [2]; 2.5 μg base/kg, 1 min): 75%
- % inhibition in time (histamine bronchospasm [2]; 2.5 μg base/kg, 5 min): 13%
- % inhibition in time (histamine bronchospasm [2]; 2.5 μg base/kg, 10 min): 8%
- % inhibition in time (histamine bronchospasm [2]; 2.5 μg base/kg, 15 min): 4%
- % inhibition in time (histamine bronchospasm [2]; 8 μg base/kg, 1 min): 91%
- % inhibition in time (histamine bronchospasm [2]; 8 μg base/kg, 5 min): 35%
- % inhibition in time (histamine bronchospasm [2]; 8 μg base/kg, 10 min): 13%
- % inhibition in time (histamine bronchospasm [2]; 8 μg base/kg, 15 min): 8%
- % inhibition in time (histamine bronchospasm [2]; 25 μg base/kg, 1 min): 97%
- % inhibition in time (histamine bronchospasm [2]; 25 μg base/kg, 5 min): 78%
- % inhibition in time (histamine bronchospasm [2]; 25 μg base/kg, 10 min): 34%
- % inhibition in time (histamine bronchospasm [2]; 25 μg base/kg, 15 min): 22%
- % inhibition in time (histamine bronchospasm [2]; 83 μg base/kg, 1 min): 94%
- % inhibition in time (histamine bronchospasm [2]; 83 μg base/kg, 5 min): 81%
- % inhibition in time (histamine bronchospasm [2]; 83 μg base/kg, 10 min): 60%
- % inhibition in time (histamine bronchospasm [2]; 83 μg base/kg, 15 min): 55%
- % inhibition in time (histamine bronchospasm [2]; 83 μg base/kg, 30 min): 50%
- % inhibition in time (histamine bronchospasm [2]; 83 μg base/kg, 45 min (n = 9)): 30%
- % inhibition in time (histamine bronchospasm [2]; 83 μg base/kg, 60 min (n = 9)): 17%
- Dose to obtain a high activity (histamine bronchospasm [3]): 8 mg/kg
- % inhibition in time (histamine bronchospasm [3]; 0.8 mg base/kg, 1 min): 4%
- % inhibition in time (histamine bronchospasm [3]; 0.8 mg base/kg, 5 min): 18%
- % inhibition in time (histamine bronchospasm [3]; 0.8 mg base/kg, 15 min): 16%
- % inhibition in time (histamine bronchospasm [3]; 0.8 mg base/kg, 30 min): 16%
- % inhibition in time (histamine bronchospasm [3]; 0.8 mg base/kg, 45 min): 13%
- % inhibition in time (histamine bronchospasm [3]; 0.8 mg base/kg, 60 min): 13%
- % inhibition in time (histamine bronchospasm [3]; 2.5 mg base/kg, 1 min): 2%
- % inhibition in time (histamine bronchospasm [3]; 2.5 mg base/kg, 5 min): 14%
- % inhibition in time (histamine bronchospasm [3]; 2.5 mg base/kg, 15 min): 32%
- % inhibition in time (histamine bronchospasm [3]; 2.5 mg base/kg, 30 min): 34%
- % inhibition in time (histamine bronchospasm [3]; 2.5 mg base/kg, 45 min): 29%
- % inhibition in time (histamine bronchospasm [3]; 2.5 mg base/kg, 60 min): 23%
- % inhibition in time (histamine bronchospasm [3]; 2.5 mg base/kg, 90 min): 15%
- % inhibition in time (histamine bronchospasm [3]; 2.5 mg base/kg, 120 min): 10%
- % inhibition in time (histamine bronchospasm [3]; 8 mg base/kg, 1 min): 31%
- % inhibition in time (histamine bronchospasm [3]; 8 mg base/kg, 5 min): 64%
- % inhibition in time (histamine bronchospasm [3]; 8 mg base/kg, 15 min): 76%
- % inhibition in time (histamine bronchospasm [3]; 8 mg base/kg, 30 min): 72%
- % inhibition in time (histamine bronchospasm [3]; 8 mg base/kg, 45 min): 65%
- % inhibition in time (histamine bronchospasm [3]; 8 mg base/kg, 60 min): 58%
- % inhibition in time (histamine bronchospasm [3]; 8 mg base/kg, 90 min): 52%
- % inhibition in time (histamine bronchospasm [3]; 8 mg base/kg, 120 min (n = 9 compound A, n = 8 Salbutamol)): 37%
- % inhibition in time (histamine bronchospasm [4]; 0.025 mg base/kg, 5 min): 21%
- % inhibition in time (histamine bronchospasm [4]; 0.025 mg base/kg, 20 min): 65%
- % inhibition in time (histamine bronchospasm [4]; 0.025 mg base/kg, 35 min): 63%
- % inhibition in time (histamine bronchospasm [4]; 0.025 mg base/kg, 60 min): 61%
- % inhibition in time (histamine bronchospasm [4]; 0.025 mg base/kg, 90 min): 65%
- % inhibition in time (histamine bronchospasm [4]; 0.08 mg base/kg, 5 min): 8%
- % inhibition in time (histamine bronchospasm [4]; 0.08 mg base/kg, 20 min): 50%
- % inhibition in time (histamine bronchospasm [4]; 0.08 mg base/kg, 35 min): 56%
- % inhibition in time (histamine bronchospasm [4]; 0.08 mg base/kg, 60 min): 55%
- % inhibition in time (histamine bronchospasm [4]; 0.08 mg base/kg, 90 min): 52%
- EC50 (rat uterus preparation; contracting agent acetylcholine): 5 nM
- EC50 (rat uterus preparation; contracting agent serotonine): 8.3 nM
- Heart rate, increase ([5]; 1 × 10^-4 mol): +110 beats per min.
- Heart rate, maximum ([5]; 1 × 10^-4 mol, basal 202 (Salbutamol)): 312 beats per min.
- Heart rate, increase ([5]; 1 × 10^-5 mol (maxi for Salbutamol)): +115 beats per min.
- Heart rate, maximum ([5]; 1 × 10^-5 mol, basal 209 (Compound A), 202 (Salbutamol)): 317 beats per min.
- Heart rate, increase ([5]; 1 × 10^-6 mol (maxi for Compound A)): +106 beats per min.
- Heart rate, maximum ([5]; 1 × 10^-6 mol, basal 209 (Compound A), 202 (Salbutamol)): 308 beats per min.
- Heart rate, increase ([5]; 1 × 10^-7 mol): +90 beats per min.
- Heart rate, maximum ([5]; 1 × 10^-7 mol, basal 209 (Compound A), 202 (Salbutamol)): 292 beats per min.
- Heart rate, increase ([5]; 1 × 10^-8 mol): +49 beats per min.
- Heart rate, maximum ([5]; 1 × 10^-8 mol, basal 202 (Salbutamol)): 251 beats per min.
- Heart rate, maximum cumulative effect ([6]; artificial respiration, 15 min after 0.025 mg/kg): +41 cpm
- Average aortic pressure, maximum cumulative effect ([6]; artificial respiration, 90 min after 0.08 mg/kg): -36 mmHg
- Heart rate, maximum cumulative effect ([6]; spontaneous respiration, 20 min after 0.08 mg/kg): +26 cpm
- Average aortic pressure, maximum cumulative effect ([6]; spontaneous respiration, 1 h after 0.08 mg/kg): -40 mmHg
- EC50 (guinea pig trachea; read-out: CD50 before propranolol): 11 nM
- EC50 (guinea pig trachea; propranolol 1.7×10^-8 mol, read-out: CD50 after propranolol): 38 nM
- Ratio of CD50 (guinea pig trachea; after / before propranolol): 3.5
